By IC50 is commonly meant the concentration at which inhibition is half-maximal.

Each structure is given as a SMILES string.

Common to all, as to type: functional, cell-based
Assay [1] deals with HCT-116. Description: Cytotoxic activity against human HCT116 cells.
Assay [2] deals with PC-3. Description: Cytotoxic activity against human PC3 cells.
In assay [3] the test system is HL-60. Kind of assay: Cytotoxic activity against human HL60 cells.

In the case of `COc1c(C)c(/C=C/C(=O)O)oc(=O)c1C`, the IC50 in assay [1], in assay [2] and in assay [3] was over 50 µM throughout.
In the case of `COC(=O)/C=C/c1oc(=O)c(COC(C)=O)c(OC)c1CO`, the values for the IC50 in assay [1], in assay [2] and in assay [3] were 2.31 µM, 1.09 µM and 0.65 µM, respectively.
The corresponding values for `COC(=O)/C=C/c1oc(=O)c(CO)c(OC)c1COC(C)=O` are 9.84 µM, 5.9 µM and 1.04 µM.
The like results for `O=c1[nH]cc(F)c(=O)[nH]1` [FLUOROURACIL] were, in that order, 17 µM, 1.6 µM and 2.8 µM.
The like results for `COC(=O)/C=C/c1oc(=O)c(CO)c(OC)c1CO` were, in that order, over 50 µM, over 50 µM and over 50 µM.
Take `COC(=O)/C=C/c1oc(=O)c(COC(C)=O)c(OC)c1COC(C)=O`: the 50% inhibitory concentration (IC50) is 1.32 µM in assay [1], 0.98 µM in assay [2] and 0.52 µM in assay [3].
The corresponding values for `COc1c(C)c(/C=C/C(=O)O)oc(=O)c1CO` are over 50 µM, over 50 µM and over 50 µM.
The molecule `COC(=O)C1C(c2oc(=O)c(COC(C)=O)c(OC)c2COC(C)=O)C(C(=O)OC)C1c1oc(=O)c(COC(C)=O)c(OC)c1COC(C)=O` (stereo not drawn) returned a half-inhibitory concentration (IC50) in assay [3] of 4.56 µM.
As for `COc1c(CO)c(/C=C/C(=O)O)oc(=O)c1CO`, the IC50 in assay [1], in assay [2] and in assay [3] was over 50 µM in each case.
Regarding `COC(=O)C1C(c2oc(=O)c(CO)c(OC)c2CO)C(C(=O)OC)C1c1oc(=O)c(CO)c(OC)c1CO` (stereo not drawn), the IC50 in assay [1], in assay [2] and in assay [3] was over 50 µM throughout.

Source of the values: ChEMBL document CHEMBL4052756, “α-Pyrone derivatives with cytotoxic activities, from the endophytic fungus Phoma sp. YN02-P-3” (Bioorg Med Chem Lett, 2017).
